Source: US7612089B2, “Tetrahydroisoquinolines as factor Xa inhibitors” (Portola Pharmaceuticals, Inc., priority 2004, dated 2009)

Biological target: T1, human plasma protein factor Xa (Homo sapiens, UniProt P00742)
T1 construct: The human plasma protein factor Xa was purchased; purchased Haematologic Technologies (Essex Junction, Vt.); host or cells: human plasma
Assay: Factor Xa IC50 determination (cleavage of paranitroanilide substrate S-2765)
Format: biochemical
Settings: fXa 1 nM, S2765 100 μM, Tris buffered saline pH 7.4, room temperature
Excerpt: This example illustrates methods for evaluating the compounds of the invention, along with results obtained for such assays. The in vitro and in vivo Factor Xa isoform activities of the inventive compounds can be determined by various procedures known in the art, such as a test for their ability to inhibit the activity of the Factor Xa isoform. […] The IC50 value is the concentration (in nM) of the compound required to provide 50% inhibition of Factor Xa isoform.
An in vitro assay for detecting and measuring inhibition activity against Factor Xa is as follows:
IC50 and Ki Determinations:
The substrate S-2765 (Z-D-Arg-Gly-Arg-pNA.HCl) was obtained from Diapharma (West Chester, Ohio).
The human plasma protein factor Xa was purchased from Haematologic Technologies (Essex Junction, Vt.).
All assays, which are performed in 96-well microtiter plates, measure proteolytic activity of the enzyme (factor Xa) by following cleavage of paranitroanilide substrate. The assay buffer used for proteolytic assays was Tris buffered saline (20 mM Tris, 150 mM NaCl, 5 mM CaCl2, 0.1% Bovine serum albumin (BSA), 5% Dimethly Sulfoxide (DMSO) pH 7.4). In a 96-well microtiter plate, inhibitor was serially diluted to give a range of concentrations from 0.01 nM to 10 μM (final). Duplicate sets of wells were assayed and control wells without inhibitor were included. Enzyme was added to each well, (fXa concentration=1 nM), the plate was shaken for 5 seconds and then incubated for 5 minutes at room temperature. S2765 was added (100 μM final) and the plate was shaken for 5 seconds (final liquid volume in each well was 200 μl). The degree of substrate hydrolysis was measured at 405 nm on a Thermomax plate reader (Molecular Devices, Sunnyvale, Calif.) for 2 minutes. The initial velocities (mOD/min), for each range of inhibitor concentrations, were fitted to a four parameter equation using Softmax data analysis software. The parameter C, derived from the resulting curve-fit, corresponded to the concentration for half maximal inhibition (IC50).

T1 sequence (P00742 235-488 limits assumed): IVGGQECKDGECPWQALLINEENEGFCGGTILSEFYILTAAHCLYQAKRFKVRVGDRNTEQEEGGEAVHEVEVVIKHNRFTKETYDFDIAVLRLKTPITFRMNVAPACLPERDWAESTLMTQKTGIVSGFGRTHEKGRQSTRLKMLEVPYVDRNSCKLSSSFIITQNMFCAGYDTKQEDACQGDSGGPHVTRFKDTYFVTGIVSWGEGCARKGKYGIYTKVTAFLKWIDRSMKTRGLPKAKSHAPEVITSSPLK
T1 sequence (P00742 41-179 partner limits assumed): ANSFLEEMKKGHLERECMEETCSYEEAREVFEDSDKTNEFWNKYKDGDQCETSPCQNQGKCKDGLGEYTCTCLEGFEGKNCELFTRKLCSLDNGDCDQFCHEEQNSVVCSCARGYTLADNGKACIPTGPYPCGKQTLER

| IC50 | SMILES |
| --- | --- |
| ≤ 100 nM | CN1CCCN(c2ccc(NC(=O)[C@H]3Cc4ccccc4CN3C(=O)Nc3ccc(Cl)s3)cc2)CC1 [Example 49, (3R) N-[4-(4-methyl-homopiperazin-1-yl)phenyl]-2N-[5-(2-chlorothiophene)aminocarbonyl]-1,2,3,4-tetrahydroisoquinoline-3-carboxamide] |
| 100 to 500 nM | O=C(Nc1ccc(-c2cccc[n+]2[O-])cc1)C1Cc2ccccc2N1C(=O)Nc1ccc(Cl)cc1 (stereo not shown) [Example 32, N-[4-(1N-oxo-pyridin-2-yl)phenyl]-1N-(4-chlorophenylaminocarbonyl)-indoline-2-carboxamide] |
| ≤ 100 nM | Cc1cccc2c1CC(C(=O)Nc1ccc(C(=N)N(C)C)cc1)N(C(=O)Nc1ccc(Cl)cc1)C2 (stereo not shown) [Example 20, N-[4-(dimethylaminoimino)phenyl]-2N-(4-chlorophenylaminocarbonyl)-5-methyl-1,2,3,4-tetrahydroisoquinoline-3-carboxamide] |
| ≤ 100 nM | O=C(Nc1ccc(C(=O)N2CCOC2)cc1)C1Cc2ccccc2CN1C(=O)Nc1ccc(Cl)cc1 (stereo not shown) [Example 16, N-[4-(3-oxazolidinylcarbonyl)phenyl]-2N-(4-chlorophenylaminocarbonyl)-1,2,3,4-tetrahydroisoquinoline-3-carboxamide] |
| ≤ 100 nM | Cc1cccc2c1CC(C(=O)Nc1ccc(C3=NCCN3C)cc1)N(C(=O)Nc1ccc(Cl)cc1)C2 (stereo not shown) [Example 18, N-[4-(1-methyl-4,5-dihydro-1H-imidazol-2-yl)phenyl]-2N-(4-chlorophenylaminocarbonyl)-5-methyl-1,2,3,4-tetrahydroisoquinoline-3-carboxamide] |
| ≤ 100 nM | O=C(Nc1ccc(C(=O)N2CCCC2)cc1)C1Cc2ccccc2CN1C(=O)Nc1ccc(Cl)cc1 (stereo not shown) [Example 8, N-[4-(pyrrolidinylcarbonyl)phenyl]-2N-(4-chlorophenylaminocarbonyl)-1,2,3,4-tetrahydroisoquinoline-3-carboxamide] |
| ≤ 100 nM | CN(c1ccncc1)c1ccc(NC(=O)C2Cc3ccccc3CN2C(=O)Nc2ccc(Cl)cc2)cc1 (stereo not shown) [Example 17, N-[4-(N-methyl-N-pyridin-4-yl-amino)phenyl]-2N-(4-chlorophenylaminocarbonyl)-1,2,3,4-tetrahydroisoquinoline-3-carboxamide] |
| ≤ 100 nM | CN1CCCN(c2ccc(NC(=O)C3Cc4cc(O)ccc4CN3C(=O)Nc3ccc(Cl)cc3)cc2)CC1 (stereo not shown) [Example 40, N-[4-(4-methyl-homopiperazinyl)phenyl]-2N-(4-chlorophenylaminocarbonyl)-6-hydroxy-1,2,3,4-tetrahydroisoquinoline-3-carboxamide] |
| ≤ 100 nM | O=C([C@H]1Cc2ccccc2CN1C(=O)Nc1ccc(Cl)cc1)N1CCC(N2CCOCC2=O)CC1 [Example 44, (3R) 4-(3-morpholinon-4-yl)piperidin-1-yl 2N-(4-chlorophenylaminocarbonyl)-1,2,3,4-tetrahydroisoquinoline-3-carboxamide] |
| ≤ 100 nM | CN1CCN=C1c1ccc(NC(=O)C2c3ccccc3CN2C(=O)Nc2ccc(Cl)cc2)cc1 (stereo not shown) [Example 28, N-[4-(1-methyl-4,5-dihydro-1H-imidazol-2-yl)phenyl]-2N-(4-chlorophenylaminocarbonyl)-2,3-dihydro-1H-isoindole-1-carboxamide] |
| ≥ 500 nM | CC(C)N1CCC(NC(=O)C2Cc3ccccc3CN2C(=O)Nc2ccc(Cl)cc2)CC1 (stereo not shown) [Example 12, N-(1-isopropylpiperidin-4-yl)2N-(4-chlorophenylaminocarbonyl)-1,2,3,4-tetrahydroisoquinoline-3-carboxamide] |
| 100 to 500 nM | CN1CCN(c2ccc(NC(=O)[C@H]3Cc4ccccc4CN3C(=O)Nc3ccc(Cl)cc3)cc2)C(=O)C1 [Example 45, (3R) N-[4-(4-methyl-2-piperazinon-1-yl)phenyl]-2N-(4-chlorophenylaminocarbonyl)-1,2,3,4-tetrahydroisoquinoline-3-carboxamide] |
| ≤ 100 nM | CN1CCN=C1c1ccc(NC(=O)C2Cc3ccccc3CN2C(=O)Nc2ccc(Cl)cc2)cc1 (stereo not shown) [Example 1, N-[4-(1-methyl-4,5-dihydro-1H-imidazol-2-yl)phenyl]-2N-(4-chlorophenylaminocarbonyl)-1,2,3,4-tetrahydroisoquinoline-3-carboxamide] |
| ≤ 100 nM | O=C(Nc1ccc(-n2ccccc2=O)cc1)[C@H]1Cc2ccccc2CN1C(=O)Nc1ccc(Cl)s1 [Example 48, (3R) N-[4-(2-pyridon-1-yl)phenyl]-2N-[5-(2-chlorothiophene)aminocarbonyl]-1,2,3,4-tetrahydroisoquinoline-3-carboxamide] |
| ≤ 100 nM | O=C(Nc1ccc(-n2ccccc2=O)cc1)[C@@H]1Cc2ccccc2CN1C(=O)Nc1ccc(Cl)cc1 [Example 37, (3S)N-[4-(2-pyridon-1-yl)phenyl]-2N-(4-chlorophenylaminocarbonyl)-1,2,3,4-tetrahydroisoquinoline-3-carboxamide] |
| ≤ 100 nM | O=C(Nc1ccc(N2CCOCC2=O)cc1)C1c2ccccc2CN1C(=O)Nc1ccc(Cl)cc1 (stereo not shown) [Example 31, N-[4-(3-oxo-morpholin-4-yl)phenyl]-2N-(4-chlorophenylaminocarbonyl)-2,3-dihydro-1H-isoindole-1-carboxamide] |
| ≤ 100 nM | CN(C)C(=N)c1ccc(NC(=O)C2Cc3ccccc3CN2C(=O)Nc2ccc(Cl)cc2)cc1 (stereo not shown) [Example 5, N-[4-(dimethylaminoimino)phenyl]-2N-(4-chlorophenylaminocarbonyl)-1,2,3,4-tetrahydroisoquinoline-3-carboxamide] |
| ≤ 100 nM | N=C(c1ccc(NC(=O)C2Cc3ccccc3CN2C(=O)Nc2ccc(Cl)cc2)cc1)N1CCCC1 (stereo not shown) [Example 4, N-[4-(pyrrolidinylimino)phenyl]-2N-(4-chlorophenylaminocarbonyl)-1,2,3,4-tetrahydroisoquinoline-3-carboxamide] |
| ≤ 100 nM | O=C(Nc1ccc(C(=O)N2CCSC2)cc1)C1Cc2ccccc2CN1C(=O)Nc1ccc(Cl)cc1 (stereo not shown) [Example 15, N-[4-(3-thiazolidinylcarbonyl)phenyl]-2N-(4-chlorophenylaminocarbonyl)-1,2,3,4-tetrahydroisoquinoline-3-carboxamide] |
| ≤ 100 nM | O=C(Nc1ccc(-c2cccc[n+]2[O-])cc1)C1Cc2ccccc2CN1C(=O)Nc1ccc(Cl)cc1 (stereo not shown) [Example 2, N-[4-(1N-oxo-pyridin-2-yl)phenyl]-2N-(4-chlorophenylaminocarbonyl)-1,2,3,4-tetrahydroisoquinoline-3-carboxamide] |
| 100 to 500 nM | CN1CCCN(c2ccc(NC(=O)[C@@H]3Cc4ccccc4CN3C(=O)Nc3ccc(Cl)cc3)cc2)CC1 [Example 34, (3S)N-[4-(4-methyl-homopiperazinyl)]phenyl-2N-(4-chlorophenylaminocarbonyl)-1,2,3,4-tetrahydroisoquinoline-3-carboxamide] |
| ≥ 500 nM | COc1cc2c(cc1OC)CN(C(=O)Nc1ccc(Cl)cc1)[C@H](C(=O)Nc1ccc(C(=N)N(C)C)cc1)C2 [Example 23, (3S)-N-[4-(dimethylaminoimino)phenyl]-2N-(4-chlorophenylaminocarbonyl)-6,7-diemthoxy-1,2,3,4-tetrahydroisoquinoline-3-carboxamide] |
| ≤ 100 nM | CN(C)C(=N)c1ccc(NC(=O)C2Cc3sccc3CN2C(=O)Nc2ccc(Cl)cc2)cc1 (stereo not shown) [Example 26, N-[4-(dimethylaminoimino)phenyl]-5N-(4-chlorophenylaminocarbonyl)-4,5,6,7-tetrahydro-thieno[3,2-c]pyridine-6-carboxamide] |
| ≤ 100 nM | O=C(Nc1ccc(-n2ccccc2=O)cc1)[C@H]1Cc2ccccc2CN1C(=O)Nc1ccc(Cl)cc1 [Example 36, (3R) N-[4-(2-pyridon-1-yl)phenyl]-2N-(4-chlorophenylaminocarbonyl)-1,2,3,4-tetrahydroisoquinoline-3-carboxamide] |
| ≤ 100 nM | CN1CCC(N2CCN(C(=O)C3Cc4ccccc4CN3C(=O)Nc3ccc(Cl)cc3)CC2)CC1 (stereo not shown) [Example 11, 4-(1-methylpiperidin-4-yl)piperazinyl 2N-(4-chlorophenylaminocarbonyl)-1,2,3,4-tetrahydroisoquinoline-3-carboxamide] |
| ≤ 100 nM | CN(C)Cc1nccn1-c1ccc(NC(=O)C2Cc3ccccc3CN2C(=O)Nc2ccc(Cl)cc2)c(F)c1 (stereo not shown) [Example 13, N-[4-(2-dimethylaminomethyl-imidazol-1-yl)-2-fluorophenyl]-2N-(4-chlorophenylaminocarbonyl)-1,2,3,4-tetrahydroisoquinoline-3-carboxamide] |
| ≤ 100 nM | CN1CCN=C1c1ccc(NC(=O)C2Cc3cc(O)ccc3CN2C(=O)Nc2ccc(Cl)cc2)cc1 (stereo not shown) [Example 24, N-[4-(1-methyl-4,5-dihydro-1H-imidazol-2-yl)phenyl]-2N-(4-chlorophenylaminocarbonyl)-6-hydroxy-1,2,3,4-tetrahydroisoquinoline-3-carboxamide] |
| ≤ 100 nM | O=C([C@H]1Cc2ccccc2CN1C(=O)Nc1ccc(Cl)cc1)N1CCC(N2CCCCC2=O)CC1 [Example 42, (3R) 4-(2-piperidinon-1-yl)piperidin-1-yl 2N-(4-chlorophenylaminocarbonyl)-1,2,3,4-tetrahydroisoquinoline-3-carboxamide] |
